Entries after “also recorded” stand apart in the source; their conditions may differ.
Experiments:
CD11c+ DCs = assay: DC maturation of murine BMDCs, CD86 expression by FACS; assay type: cell-based, mouse
Method: BMDCs were prepared as described and CD11c^+ DCs were purified at day 6 and replated at 5×10^5 cells/ml.
CD11c^+ DCs after different stimuli were subject to FACS analysis.
SB 216763 was purchased from Tocris Cookson Inc. (Ellisville, Mo.). […] Flow Cytometry Assays Cells were stained for 30 min on ice with primary antibody and if necessary secondary antibody, washed, and then evaluated on a FACSCalibur™ (Becton Dickinson). […] Cell Culture and purification of DC, OT-I and OT-II T cells Mouse DM-derived CD11c^+ DCs were isolated using anti-CD11c-conjugated beads and columns (Miltenyi Biotech) according to the manufacturer's protocol. The resulted CD11c^+ DCs were then resuspended in the same culture media at 5-10×10^5 cells/ml; these cells were in single cell suspension and thus referred as cluster-disrupted cells.

β-catenin [1] = assay: Cytosolic β-catenin accumulation in human DCs (cell fractionation, Western blot); assay type: cell-based; details: human DCs (not shown)
DCs [2] = assay: Cytokine and chemokine production by treated DCs; assay type: cell-based
Text: The ability of the GSK3β inhibitor SB216763 to induce maturation was particularly striking. While it is possible this effect was limited to the dramatic increase in free β-catenin, GSK3β also has other targets. For example, by inhibiting GSK3β-mediated phosphorylation of NF-AT, this transcriptional activator would be more readily translocated into the nucleus, possibly synergyzing with β-catenin (Crabtree and Olson, 2002). Other potential mediators (eg Hedgehog, p53, c-myc) might also be affected (Doble and Woodgett, 2003). […] Cytokine and chemokine multiplex analysis The levels of cytokines and chemokines were measured with Luminex suspension array technology. Supernatants were collected and frozen at −80° C. For human CD34^+-derived DCs, cell culture supernatants were then analyzed using the Beadlyte cytokine assay kit (Upstate) with manufacturer's protocol. For mouse cytokines, supernatants were analyzed using the Bio-Plex cytokine assay kit and supporting reagents (BioRad) following manufacturer's procedures.

active β-catenin = assay: Active β-catenin by sequential immunoprecipitation and immunoblotting in BMDCs; assay type: cell-based; details: bone marrow-derived DC cultures
Text: Bone marrow-derived DC cultures were either treated with LPS, SB216763 or cluster disruption (CD). CD11c^+ cells were purified and same number of cells were used to make cell lysates as described. Cell lysates were then subject to sequential immunoprecipitation with antibodies against E-cadherin and β-catenin, followed by immunoblotting with antibodies against E-cadherin (top), active β-catenin (middle) and total β-catenin (bottom).
BMDCs were either treated with LPS or CD and cell lysates from CD11c^+ DCs were subject to sequential immunoprecipitation with antibodies against E-cadherin and β-catenin, followed by immunoblotting with antibodies against E-cadherin (top), active β-catenin (middle) and total β-catenin (bottom).
Reagents and Antibodies Rat anti-E-cadherin, mouse anti-β-catenin, mouse anti-p120 catenin were purchased from BD Transduction Laboratories (Lexington, Calif.). Both mouse anti-E-cadherin (HECD-1 and SHE78-7) and rat anti-E-cadherin (ECCD-1 and 2) monoclonal antibodies were obtained from Zymed (San Francisco, Calif.). Rat monoclonal anti-E-cadherin and rabbit polyclonal β-catenin were obtained from Sigma-Aldrich. […] Flow Cytometry Assays Cells were stained for 30 min on ice with primary antibody and if necessary secondary antibody, washed, and then evaluated on a FACSCalibur™ (Becton Dickinson). […]

DCs [3] = assay: MHC class II redistribution in DCs by immunofluorescence; assay type: cell-based; details: immunofluorescence (not shown)
GSK3β = GSK3β (Homo sapiens, UniProt P49841); details: cited from earlier work
β-catenin [4] = assay: Cytosolic β-catenin accumulation in murine DCs (cell fractionation, Western blot); assay type: cell-based; details: murine immature DCs, different doses
Method: BMDCs were treated with either LPS or different doses of SB216763. CD11c^+ DCs were then fractionated into membrane and cytosolic fractions, followed by immunoblotting with antibodies against β-catenin (top) and E-cadherin (middle). Akt was probed as a loading control (bottom).
SB 216763 was purchased from Tocris Cookson Inc. (Ellisville, Mo.). […] Cell Culture and purification of DC, OT-I and OT-II T cells Mouse DM-derived CD11c^+ DCs were isolated using anti-CD11c-conjugated beads and columns (Miltenyi Biotech) according to the manufacturer's protocol. The resulted CD11c^+ DCs were then resuspended in the same culture media at 5-10×10^5 cells/ml; these cells were in single cell suspension and thus referred as cluster-disrupted cells. […] Cell fractionation, Immunoprecipitation and Western blotting Cells were homogenized in hypotonic buffer (10 mM HEPES-KOH pH 7.4, 1.5 mM MgCl2, 10 mM KCl, 0.5 mM DTT) with proteinase and phosphatase inhibitors by passing through 30 gauge needles for 10 times. Postnuclear fractions were centrifuged at 45,000 rpm for 45 min to separate membrane and cytosol fractions. Total cell lysates were obtained with 1% NP-40 lysis buffer (1% Nonidet P-40, 150 mM NaCl, 20 mM Tris, and ImM EDTA (pH 7.5)) supplemented with proteinase and phosphatase inhibitors.

GSK3β, sequence (P49841 whole entry, species assumed): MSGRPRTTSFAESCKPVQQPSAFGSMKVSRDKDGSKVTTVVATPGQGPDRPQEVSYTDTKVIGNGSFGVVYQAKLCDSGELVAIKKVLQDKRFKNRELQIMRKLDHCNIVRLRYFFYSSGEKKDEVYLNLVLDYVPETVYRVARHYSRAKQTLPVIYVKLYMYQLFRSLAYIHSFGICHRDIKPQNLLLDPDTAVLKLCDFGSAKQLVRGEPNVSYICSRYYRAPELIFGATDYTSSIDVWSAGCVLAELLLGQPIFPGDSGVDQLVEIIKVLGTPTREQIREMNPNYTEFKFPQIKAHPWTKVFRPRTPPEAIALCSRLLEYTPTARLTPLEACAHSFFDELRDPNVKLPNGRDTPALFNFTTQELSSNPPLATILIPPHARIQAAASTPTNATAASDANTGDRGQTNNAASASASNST

Cn1cc(C2=C(c3ccc(Cl)cc3Cl)C(=O)NC2=O)c2ccccc21 [SB216763]
effectiveness at triggering DC maturation compared with LPS and cluster disruption (CD) (CD11c+ DCs; 10 μM): nearly as effective as LPS at triggering DC maturation, and slightly more effective than CD
mature population (percentage of cells expressing high CD86) (CD11c+ DCs; added to immature DCs, different doses): increased in a dose-dependent manner; also recorded: results in DC maturation
accumulation of β-catenin in the cytosol (β-catenin [1]): dose-dependent accumulation of β-catenin in the cytosol
production of inflammatory cytokines (DCs [2]): failed to induce the production of inflammatory cytokines
formation of chemokines (eg IP10, MCP-1, MIP-α, CXCL8) (DCs [2]; compared with cluster disruption): induced the formation of the same array of chemokines as did CD
activation of β-catenin (active, non-phosphorylated β-catenin) (active β-catenin): Resulted in Activation of β-Catenin
mature DC phenotype, MHC class II distribution (DCs [3]): MHC class II molecules redistributing from lysosomes to the plasma membrane
selectivity as GSK3β inhibitor (GSK3β): selective inhibitor of GSK3β
accumulation of β-catenin in the cytosol (β-catenin [4]): dose-dependent accumulation of β-catenin in the cytosol; also recorded: Dose-dependent accumulation of cytosolic β-catenin

— patent US20090306045A1, “Inhibition of Glycogen Synthase Kinase and Methods of Treating Autoimmune or Immune Inflammatory Disease” (priority 2005, published 2009)
